The source made the active and inactive calls.
Assays:
[1] = blockers of HIV-1 ZM109 envelope-driven cell-cell fusion – HeLa effector, CEM target cells, luciferase, cherry-pick, dose response (AID 652058); assay type: functional, cell-based;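 note: luciferase signal from HIV-1 Env mediated cell-cell fusion of effector and target cells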
[2] = blockers of HIV-1 envelope-mediated cell-cell fusion – cherry-pick, dose response (AID 652057); assay type: functional, cell-based
[3] = HIV-1 AD8 envelope cell-cell fusion blockers – cherry-pick, dose response (AID 652062); assay type: functional, cell-based;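 note: luciferase signal from cell-cell fusion driven by HIV-1 clade B AD8 Env; potency is for inhibitors of fusion seen as a drop in luminescence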
[4] = off-target signal loss in HeLa-CEM21 co-culture – HeLa F-luc CTL cells, cherry-picked, counter-screen for HIV-1 Env fusion inhibitor project, dose response (AID 652040); assay type: functional, cell-based;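 note: potency for signal decrease marking cytotoxic or nonspecific inhibition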
[5] = biological target: T1, Fructose-bisphosphate aldolase (Mycobacterium tuberculosis, UniProt P9WQA3); experiment: Fluorescence-based biochemical high throughput dose response assay for inhibitors of the fructose-bisphosphate aldolase (FBA) of M. tuberculosis.; assay type: functional
T1 sequence (P9WQA3 whole entry): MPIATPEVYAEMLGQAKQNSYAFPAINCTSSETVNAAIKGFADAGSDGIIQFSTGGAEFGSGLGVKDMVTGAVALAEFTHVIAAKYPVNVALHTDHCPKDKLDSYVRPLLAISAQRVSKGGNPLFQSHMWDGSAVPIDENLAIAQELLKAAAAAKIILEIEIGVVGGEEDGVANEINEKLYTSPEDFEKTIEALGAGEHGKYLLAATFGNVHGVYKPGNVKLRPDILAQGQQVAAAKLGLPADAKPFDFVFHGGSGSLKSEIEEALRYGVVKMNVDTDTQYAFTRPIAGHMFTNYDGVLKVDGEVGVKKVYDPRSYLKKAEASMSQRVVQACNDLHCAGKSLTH

[6] = biological target: T2, Short transient receptor potential channel 4 (Mus musculus, UniProt Q9QUQ5); experiment: block of DAMGO-driven TRPC4 calcium entry – cell-based, HEK293 TRPC4/mu-opioid, Fluo-4 calcium, dose response (AID 434942); assay type: functional;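 note: potency of inhibitors blocking the TRPC4 calcium response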
T2 sequence (Q9QUQ5 whole entry): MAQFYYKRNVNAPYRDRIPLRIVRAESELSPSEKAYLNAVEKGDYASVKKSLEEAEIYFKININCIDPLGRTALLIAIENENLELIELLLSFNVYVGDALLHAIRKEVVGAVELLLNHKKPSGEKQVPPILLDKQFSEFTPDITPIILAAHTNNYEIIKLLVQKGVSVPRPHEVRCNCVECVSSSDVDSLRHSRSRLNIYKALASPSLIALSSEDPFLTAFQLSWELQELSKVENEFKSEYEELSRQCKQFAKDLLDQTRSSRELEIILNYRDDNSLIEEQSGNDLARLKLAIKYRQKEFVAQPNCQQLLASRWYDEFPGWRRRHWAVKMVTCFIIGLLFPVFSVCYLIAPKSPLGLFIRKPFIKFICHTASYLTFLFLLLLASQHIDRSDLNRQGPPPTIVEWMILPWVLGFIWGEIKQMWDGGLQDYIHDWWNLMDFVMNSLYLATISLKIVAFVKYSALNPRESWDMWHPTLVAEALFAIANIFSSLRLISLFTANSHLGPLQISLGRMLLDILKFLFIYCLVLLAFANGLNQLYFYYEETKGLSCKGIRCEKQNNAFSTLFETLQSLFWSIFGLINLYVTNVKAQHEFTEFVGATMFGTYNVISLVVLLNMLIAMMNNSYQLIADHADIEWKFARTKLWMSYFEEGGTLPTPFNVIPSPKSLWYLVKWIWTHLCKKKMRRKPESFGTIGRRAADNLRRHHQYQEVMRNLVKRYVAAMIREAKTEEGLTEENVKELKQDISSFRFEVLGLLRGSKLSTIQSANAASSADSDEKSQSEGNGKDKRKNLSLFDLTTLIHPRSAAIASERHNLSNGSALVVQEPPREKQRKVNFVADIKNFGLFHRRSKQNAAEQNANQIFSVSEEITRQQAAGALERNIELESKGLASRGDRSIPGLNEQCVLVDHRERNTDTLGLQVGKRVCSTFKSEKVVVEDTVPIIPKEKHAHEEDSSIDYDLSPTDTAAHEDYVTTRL

[7] = Luminescence Cell-Based Dose Confirmation HTS to Identify Activators of 5'UTR Stem-Loop Driven Alpha-Synuclein mRNA Translation in H4 Neuroglioblastoma Cells. [Related pubchem assays: 1829 (Project Summary), 1814 (Primary HTS)]; assay type: functional
H4 = experiment: Luminescence Cell-Based Dose Response HTS to Identify Activators of 5'UTR Stem-Loop Driven Prion Protein mRNA Translation in H4 Neuroglioblastoma Cells. [Related pubchem assays: 1829 (Project Summary), 1814 (Primary HTS)]; assay type: functional; details: Homo sapiens
[8] = Luminescence Cell-Based Dose Response HTS to Identify Activators of Luciferase Translation or Activity in H4 […] Cells. [Related pubchem assays: 1829 (Project Summary), 1814 (Primary HTS)]; assay type: functional
cells = assay type: functional, cell-based
[9] = biological target: T3, Nuclear receptor subfamily 0 group B member 1 (Homo sapiens, UniProt P51843); assay type: functional, cell-based;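 note: HEK293T cells transfected with SF-1 and DAX-1 plus StAR promoter luciferase reporter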
T3 sequence (P51843 whole entry): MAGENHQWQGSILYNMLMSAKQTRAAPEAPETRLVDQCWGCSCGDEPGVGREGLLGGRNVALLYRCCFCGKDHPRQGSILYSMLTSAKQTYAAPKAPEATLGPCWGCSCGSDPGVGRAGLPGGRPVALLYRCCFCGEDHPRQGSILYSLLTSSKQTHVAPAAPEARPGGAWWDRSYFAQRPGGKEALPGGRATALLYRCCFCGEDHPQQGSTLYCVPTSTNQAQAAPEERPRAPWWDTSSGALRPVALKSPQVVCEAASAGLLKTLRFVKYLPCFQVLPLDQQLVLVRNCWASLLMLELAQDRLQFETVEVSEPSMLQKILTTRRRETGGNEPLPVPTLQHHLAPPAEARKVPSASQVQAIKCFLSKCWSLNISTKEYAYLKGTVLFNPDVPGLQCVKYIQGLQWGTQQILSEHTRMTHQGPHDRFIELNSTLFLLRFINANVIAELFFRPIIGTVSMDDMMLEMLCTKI

Cytochrome P450 1A2 = biological target: T4, Cytochrome P450 1A2 (Homo sapiens, UniProt P05177);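 note: PubChem cytochrome P450 panel assay, CYP1A2 panel member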
T4 sequence (P05177 whole entry): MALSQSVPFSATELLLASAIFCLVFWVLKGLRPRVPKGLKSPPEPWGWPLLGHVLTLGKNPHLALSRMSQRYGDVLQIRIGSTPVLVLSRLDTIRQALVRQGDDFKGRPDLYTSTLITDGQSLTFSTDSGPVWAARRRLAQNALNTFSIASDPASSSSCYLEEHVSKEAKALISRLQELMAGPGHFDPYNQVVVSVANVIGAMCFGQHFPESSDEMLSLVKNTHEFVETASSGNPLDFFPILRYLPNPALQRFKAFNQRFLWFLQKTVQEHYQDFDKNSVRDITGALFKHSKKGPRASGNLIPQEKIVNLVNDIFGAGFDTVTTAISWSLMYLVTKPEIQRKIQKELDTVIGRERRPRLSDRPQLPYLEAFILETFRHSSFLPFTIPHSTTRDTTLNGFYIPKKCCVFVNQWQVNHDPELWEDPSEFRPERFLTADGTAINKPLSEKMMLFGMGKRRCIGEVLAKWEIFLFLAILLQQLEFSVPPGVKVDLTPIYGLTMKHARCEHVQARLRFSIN

Cytochrome P450 3A4 = Cytochrome P450 3A4 (Homo sapiens, UniProt P08684);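 note: CYP3A4 tested as one member of a cytochrome P450 panel screen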
Chain of Cytochrome P450 3A4 (P08684 whole entry): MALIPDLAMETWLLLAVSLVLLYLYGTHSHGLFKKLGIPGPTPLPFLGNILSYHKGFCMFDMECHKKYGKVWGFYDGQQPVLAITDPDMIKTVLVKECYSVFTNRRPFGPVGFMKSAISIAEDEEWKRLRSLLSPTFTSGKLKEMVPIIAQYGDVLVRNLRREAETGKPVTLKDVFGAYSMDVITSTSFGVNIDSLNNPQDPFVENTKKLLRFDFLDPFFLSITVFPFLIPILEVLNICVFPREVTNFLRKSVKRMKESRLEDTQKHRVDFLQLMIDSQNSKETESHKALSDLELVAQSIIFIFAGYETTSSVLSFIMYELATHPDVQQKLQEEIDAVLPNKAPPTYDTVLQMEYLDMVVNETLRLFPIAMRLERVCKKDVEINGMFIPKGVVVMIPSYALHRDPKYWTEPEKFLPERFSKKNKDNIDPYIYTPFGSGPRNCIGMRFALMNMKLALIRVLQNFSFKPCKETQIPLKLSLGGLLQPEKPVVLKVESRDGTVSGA

Streptokinase A = biological target: T5, Streptokinase A (Streptococcus pyogenes serotype M1, UniProt P10520); experiment: viability-normalized secreted streptokinase activity reduction – plasminogen activation absorbance, OD405, dose response (AID 1914); assay type: functional, Streptococcus pyogenes M1 GAS;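 note: secreted streptokinase activity via plasminogen activation per viability signal from cell pellet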
T5 sequence (P10520 whole entry): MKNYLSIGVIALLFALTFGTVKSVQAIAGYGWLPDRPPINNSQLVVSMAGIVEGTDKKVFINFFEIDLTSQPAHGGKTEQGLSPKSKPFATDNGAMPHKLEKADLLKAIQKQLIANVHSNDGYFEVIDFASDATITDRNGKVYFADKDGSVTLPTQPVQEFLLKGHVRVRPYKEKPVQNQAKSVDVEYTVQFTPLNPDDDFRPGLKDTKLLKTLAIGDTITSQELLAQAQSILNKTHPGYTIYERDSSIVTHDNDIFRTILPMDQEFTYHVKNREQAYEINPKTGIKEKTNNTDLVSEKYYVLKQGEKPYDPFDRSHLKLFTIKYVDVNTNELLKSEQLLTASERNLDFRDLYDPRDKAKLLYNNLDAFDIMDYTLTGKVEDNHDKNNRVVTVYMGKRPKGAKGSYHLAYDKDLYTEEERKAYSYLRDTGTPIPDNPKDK

[10] = biological target: T6, Long-chain-fatty-acid--AMP ligase FadD28 (Mycobacterium tuberculosis, UniProt P9WQ59); experiment: Fluorescence polarization aasay to screen for inhibitors that compete for the binding of FadD28 to a bisubstrate Measured in Biochemical System Using Plate Reader - 2147-01_Inhibitor_Dose_CherryPick_Activity.; assay type: functional, Mycobacterium tuberculosis H37Rv
T6 sequence (P9WQ59 whole entry): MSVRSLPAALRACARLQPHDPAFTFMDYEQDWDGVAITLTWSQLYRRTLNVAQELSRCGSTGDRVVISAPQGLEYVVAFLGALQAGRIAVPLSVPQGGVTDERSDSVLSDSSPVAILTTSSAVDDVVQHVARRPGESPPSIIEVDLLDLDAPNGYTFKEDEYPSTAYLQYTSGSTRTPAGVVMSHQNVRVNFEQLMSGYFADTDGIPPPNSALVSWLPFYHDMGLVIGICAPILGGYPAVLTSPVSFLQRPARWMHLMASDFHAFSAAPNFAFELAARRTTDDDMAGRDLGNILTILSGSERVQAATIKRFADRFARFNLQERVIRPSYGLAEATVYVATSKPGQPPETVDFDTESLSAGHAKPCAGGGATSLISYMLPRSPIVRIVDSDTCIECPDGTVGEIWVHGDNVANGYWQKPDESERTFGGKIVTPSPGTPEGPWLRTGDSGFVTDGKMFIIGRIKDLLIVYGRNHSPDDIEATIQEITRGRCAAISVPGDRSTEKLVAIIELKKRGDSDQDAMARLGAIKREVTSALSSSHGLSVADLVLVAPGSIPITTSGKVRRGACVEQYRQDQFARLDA

Streptococcus = experiment: GAS UMAA2166 growth inhibition – luminescence, BacTiterGlo, counter-screen for streptokinase expression inhibitor project, dose response (AID 1915); assay type: functional, organism-based;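 note: potency for reduction of bacterial viability or growth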
[11] = tested on: Streptococcus sp. 'group A'; experiment: Streptococcus pyogenes SK(-)GAS viability under kanamycin – luminescence, BacTiterGlo, confirmation, counter-screen for streptokinase expression inhibitor project, dose response (AID 1900); assay type: functional, organism-based
Aminopeptidase N = biological target: T7, Aminopeptidase N (Plasmodium falciparum FcB1/Columbia, UniProt O96935); experiment: malaria alanyl aminopeptidase activity blockers – biochemical, fluorogenic H-Leu-NHMec substrate, 1536-well (AID 1445); parameters: species or system Plasmodium falciparum 3D7, 3D7
T7 sequence (O96935 whole entry): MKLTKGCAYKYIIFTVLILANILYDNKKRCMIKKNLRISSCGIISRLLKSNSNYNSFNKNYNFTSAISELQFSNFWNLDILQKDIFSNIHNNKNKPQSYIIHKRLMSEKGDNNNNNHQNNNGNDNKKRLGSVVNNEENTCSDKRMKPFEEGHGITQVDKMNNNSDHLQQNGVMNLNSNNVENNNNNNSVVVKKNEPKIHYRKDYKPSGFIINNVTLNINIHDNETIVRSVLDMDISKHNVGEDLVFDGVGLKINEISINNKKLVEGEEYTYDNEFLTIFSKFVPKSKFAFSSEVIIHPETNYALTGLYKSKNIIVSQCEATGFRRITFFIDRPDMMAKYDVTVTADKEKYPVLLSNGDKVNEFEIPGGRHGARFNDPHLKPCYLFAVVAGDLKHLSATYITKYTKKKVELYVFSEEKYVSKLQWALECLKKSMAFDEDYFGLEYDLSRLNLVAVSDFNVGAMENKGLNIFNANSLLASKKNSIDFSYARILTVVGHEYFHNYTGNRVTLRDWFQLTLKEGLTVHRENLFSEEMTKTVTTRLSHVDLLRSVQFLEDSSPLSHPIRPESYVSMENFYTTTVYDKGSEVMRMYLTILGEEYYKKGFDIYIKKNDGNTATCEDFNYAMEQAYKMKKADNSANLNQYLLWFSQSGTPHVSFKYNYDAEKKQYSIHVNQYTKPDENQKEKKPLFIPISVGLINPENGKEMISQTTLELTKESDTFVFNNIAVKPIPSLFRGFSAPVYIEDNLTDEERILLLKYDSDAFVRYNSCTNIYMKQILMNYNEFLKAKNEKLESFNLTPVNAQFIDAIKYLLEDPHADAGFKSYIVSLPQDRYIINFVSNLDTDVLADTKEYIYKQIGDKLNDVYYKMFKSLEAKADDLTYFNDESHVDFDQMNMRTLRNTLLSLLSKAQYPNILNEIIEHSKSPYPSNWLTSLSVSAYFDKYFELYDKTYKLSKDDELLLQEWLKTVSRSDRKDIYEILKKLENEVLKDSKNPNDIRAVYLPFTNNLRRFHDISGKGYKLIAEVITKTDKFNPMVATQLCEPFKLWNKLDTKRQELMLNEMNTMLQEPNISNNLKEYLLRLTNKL

CCOC(=O)c1c(C)[nH]c(C)c1C(=O)COC(=O)[C@@H](NC(=O)c1ccccc1OCC)C(C)C
AC50 [1]: 2.71 µM (active) | AC50 [2]: 3.71 µM (active) | AC50 [3]: 2.19 µM (active) | AC50 [4]: 5.72 µM (active)

Oc1ccc(CN2CCCCC2)nc1-c1ccccc1
IC50 [5]: 3.34 µM (active) | EC50 [6]: 4.73 µM (active)

N#Cc1cc(-c2cccc(Cl)c2)cnc1O
IC50 [5]: 2.29 µM (active)

CCOC(=O)N1CCN(C(=O)c2ccc3oc(CCCc4ccccc4)nc3c2)CC1
EC50 [7]: 0.579 µM (active) | EC50 (H4): 2.2 µM (active) | EC50 [8]: 0.436 µM (active) | IC50 (cells): > 67.5 µM (inactive) | IC50 [9]: > 67.5 µM (inactive)

CCn1nc2cc(C(=O)NCC34CC5CC(CC(C5)C3)C4)ccc2c1OC
IC50 [5]: 1.94 µM (active) | AC50 (Cytochrome P450 1A2): 12.6 µM (inconclusive) | AC50 (Cytochrome P450 3A4): inconclusive

Sc1nnc(-c2cc3c(s2)-c2ccccc2CC3)o1
EC50 (Streptokinase A): > 150 µM (not active) | AC50 [10]: 24.9 µM (active) | EC50 [6]: 0.944 µM (active) | EC50 (Streptococcus): 23.3 µM (inconclusive) | EC50 [11]: 11.5 µM (active) | IC50 (Aminopeptidase N): 67.4 µM (active)

C=C(c1ccc2[nH]c(NC(=O)OC)nc2c1)c1cccs1
IC50 (cells): > 67.6 µM (inactive) | IC50 [9]: 2.72 µM (active)

NC(=O)C1CCN(C(=O)CCNS(=O)(=O)c2ccccc2F)CC1
IC50 [5]: > 9.99 µM (inactive)
